As a reminder, the IC50 is the concentration that inhibits the measured activity by half. Read a high IC50 as weaker potency.

The test system of assay [1] is TNF-α activated endothelium. As to the kind of experiment: Micro-channel assay of platelet, PMN and RBC binding (FIG. 10). It is filed as cell-based, human. The note with it: bound cells at 30 min. Here is the method:
In another assay, using the same method, the reduction of PMN and RBC bindings to TNF-α activated endothelium in a micro channel well was confirmed. Platelet, PMN, and RBC in blood samples from 5 healthy normal volunteers (donors) were labelled with fluorescent dyes. The blood samples were incubated with Compound P3.1 for 2 hours or 3 hours, or HU for 3 hours, prior to running them on micro channels that were previously coated with endothelial cells activated with TNF-α. The % of bound cells was quantified at 30 min. Results are shown in FIG. 10A, FIG. 10B, and FIG. 10C.

A further assay has as its target PDE9 (Homo sapiens, UniProt O76083). The assay can be described thus: PDE9 inhibition assay. It is filed as biochemical. As to the method: Reactions are initiated by addition of the cyclic nucleotide substrate, and reactions are allowed to proceed for one hr at room temperature before being terminated through mixing with 15 uL 8 mg/mL yttrium silicate SPA beads (Amersham).
Following a 1 hour incubation the reactions were terminated by addition of 15 uL 8 mg/mL yttrium silicate SPA beads (Amersham). […] IC50 values were calculated by nonlinear regression using XLfit (IDBS).

Sequence of PDE9 (O76083 whole entry): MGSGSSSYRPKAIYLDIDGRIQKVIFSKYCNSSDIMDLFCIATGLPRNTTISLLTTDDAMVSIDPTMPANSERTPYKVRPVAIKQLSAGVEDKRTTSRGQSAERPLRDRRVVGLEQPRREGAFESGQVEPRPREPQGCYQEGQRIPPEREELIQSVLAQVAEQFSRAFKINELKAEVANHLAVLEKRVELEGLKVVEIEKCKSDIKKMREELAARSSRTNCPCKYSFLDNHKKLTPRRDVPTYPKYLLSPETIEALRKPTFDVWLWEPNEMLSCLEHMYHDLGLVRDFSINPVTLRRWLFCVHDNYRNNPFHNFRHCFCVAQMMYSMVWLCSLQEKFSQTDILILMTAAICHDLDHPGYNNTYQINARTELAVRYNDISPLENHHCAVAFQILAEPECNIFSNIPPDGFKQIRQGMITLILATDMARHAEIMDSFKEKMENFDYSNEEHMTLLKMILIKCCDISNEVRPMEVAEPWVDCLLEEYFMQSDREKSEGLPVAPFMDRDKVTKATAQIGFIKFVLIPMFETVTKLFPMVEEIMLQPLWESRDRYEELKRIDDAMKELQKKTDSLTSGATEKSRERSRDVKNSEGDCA

For `C[C@@H]1CN(Cc2ncccn2)C[C@H]1c1cn2c(C3CCOCC3)ncc2c(=O)[nH]1` (single isomer, unassigned) [Compound P3.1], in assay [1] (Compound P3.1 2 or 3 hours, HU 3 hours), the platelet binding result is listed as “did not impact platelet binding”. For the same compound, in assay [1] (blood incubated 2 or 3 hours), the “PMN adhesion to endothelial cells” value is recorded as “reduced” and the “RBC adhesion to endothelial cells” value is given as “reduced”. This compound had a concentration for half-maximal inhibition (IC50) at PDE9 of 49 nM.

For the origin of these results see US20190307754A1, “PDE9 INHIBITORS FOR TREATMENT OF PERIPHERAL DISEASES” (IMARA, INC., priority 2016, published 2019).
